Results reported in ChEMBL document CHEMBL5053548, “Subphthalocyanines as Efficient Photosensitizers with Nanomolar Photodynamic Activity against Cancer Cells” (J Med Chem, 2021).
pEC50: −log10 of the molar value. Active and inactive are the calls of the source. No cut-off for these calls is given here.

Legend:
[1] = Phototoxicity against human SK-MEL-28 cells assessed as reduction in cell viability preincubated for 12 hrs followed by 15 mins of light irradiation and measured after 24 hrs by neutral red uptake assay; type: functional, cell-based; conditions: SK-MEL-28, light or radiation study
[2] = Dark toxicity against human SK-MEL-28 cells assessed as reduction in cell viability incubated for 24 hrs by neutral red uptake assay; type: cell-based; conditions: read-out: TC50
[3] = Phototoxicity against human HeLa cells assessed as reduction in cell viability preincubated for 12 hrs followed by 15 mins of light irradiation and measured after 24 hrs by neutral red uptake assay; type: functional, cell-based; conditions: light or radiation study
[4] = Dark toxicity against human HeLa cells assessed as reduction in cell viability incubated for 24 hrs by neutral red uptake assay; type: cell-based; conditions: read-out: TC50
[5] = n-Octanol/PBS partition coefficient, logP of the compound at pH 7.4 at 100 uM after 5 mins; type: physicochemical
[6] = Absorption maximum of the compound in EtOH; type: physicochemical
[7] = Absorption maximum of the compound in THF; type: physicochemical
[8] = Absorption property of the compound in THF assessed as extinction coefficient; type: physicochemical
[9] = Emission maximum of the compound in THF; type: physicochemical
[10] = Fluorescence property of compound in EtOH assessed as quantum yield; type: physicochemical
[11] = Fluorescence property of compound in THF assessed as quantum yield; type: physicochemical
[12] = Fluorescence property of compound in THF assessed as life time; type: physicochemical
[13] = Induction of singlet oxygen generation in EtOH assessed as singlet oxygen quantum yield; type: functional
[14] = Induction of singlet oxygen generation in THF assessed as singlet oxygen quantum yield; type: functional
[15] = Selectivity index, ratio of TC50 for human SK-MEL-28 cells to EC50 for human SK-MEL-28 cells
[16] = Selectivity index, ratio of TC50 for human HeLa cells to EC50 for human HeLa cells
[17] = Drug uptake in human SK-MEL-28 cells assessed per mg protein measured upto 12 hrs by spectrofluorometric method; type: ADME, cell-based; conditions: sk-mel-28, 12 h
[18] = Drug uptake in human HeLa cells assessed per mg protein measured upto 12 hrs by spectrofluorometric method; type: ADME, cell-based
[19] = Drug localization in adiposome of human SK-MEL-28 cells at 1 uM after 12 hrs by confocal microscopy analysis; type: ADME, subcellular; conditions: sk-mel-28, 12 h
[20] = Drug localization in adiposome of human HeLa cells at 1 uM after 12 hrs by confocal microscopy analysis; type: ADME, subcellular
SK-MEL-28 = assay: Induction of apoptosis in human SK-MEL-28 cells at EC50 concentration preincubated for 12 hrs followed by 15 mins light irradiation and measured every 15 mins for 48 hrs by real time-glo Annexin V assay; type: functional, cell-based; conditions: time 3615.0 min
[21] = Fluorescence property of compound in acetone assessed as quantum yield; type: physicochemical
[22] = Absorption maximum of the compound in MeOH; type: physicochemical
[23] = Fluorescence property of compound in MeOH assessed as quantum yield; type: physicochemical
[24] = Induction of singlet oxygen generation in MeOH assessed as singlet oxygen quantum yield; type: functional
[25] = Fluorescence property of compound in MeOH assessed as life time; type: physicochemical
HeLa [26] = assay: Potency index, ratio of temo-porfin EC50 to test compound EC50 for phototoxicity against human HeLa cells; type: functional
HeLa [27] = assay: Potency index, ratio of S3AlOHPc EC50 to test compound EC50 for phototoxicity against human HeLa cells; type: functional
HeLa [28] = assay: Potency index, ratio of PpXI EC50 to test compound EC50 for phototoxicity against human HeLa cells; type: functional
[29] = Drug localization in endo-lysosome of human SK-MEL-28 cells at 1 uM after 12 hrs by confocal microscopy analysis; type: ADME, subcellular; conditions: sk-mel-28, 12 h
[30] = Drug localization in endo-lysosome of human HeLa cells at 1 uM after 12 hrs by confocal microscopy analysis; type: ADME, subcellular

Row | SMILES | pEC50 [1] | CC50 at 24 h [2] [µM] | pEC50 [3] | CC50 at 24 h [4] [µM] | logD at 5 min, 100 µM [5] | Activity [6] [nm] | Activity [7] [nm] | Activity [8] [M⁻¹ cm⁻¹] | Activity [9] [nm] | Activity [10] | Activity [11] | Activity [12] [nanoseconds] | Activity [13] | Activity [14] | Selectivity Index [15] | Selectivity Index [16] | Drug uptake [17] [nmol/mg] | Drug uptake [18] [nmol/mg] | Drug uptake [19] | Drug uptake [20] | also measured
1 | COC(=O)[C@@H](N)Cc1ccc(O[B-]23n4c5c6ccc(I)cc6c4N=c4c6ccc(I)cc6c(n42)=NC2=[N+]3C(=N5)c3ccc(I)cc32)cc1 (some centres not stated) | < 4.00 | > 100 | < 4.00 | > 100 | 1.79 | 569 | 568 | 37460 | 578 | 0.01 | 0.01 | 0.34 | 0.29 | 0.49 |  |  |  |  |  |  | 
2 | Ic1ccc2c(c1)C1=[N+]3C2=Nc2c4ccc(I)cc4c4n2[B@-]3(OCc2ccc3c(c2)OCCOCCOCCOCCOCCO3)n2c(c3cc(I)ccc3c2=N4)=N1 | 7.42 | 71.8 | 7.18 | 23.5 |  | 569 | 568 | 80750 | 578 | 0.022 | 0.022 | 0.35 | 0.59 | 0.57 | 1891 | 356 | 0.005 | 0.33 | Active | Active | Activity (SK-MEL-28): Active
3 | c1ccc(O[B-]23n4c5c6ccccc6c4N=c4c6ccccc6c(n42)=NC2=[N+]3C(=N5)c3ccccc32)cc1 (configuration not stated) |  |  |  |  |  |  | 563 |  |  |  |  |  |  |  |  |  |  |  |  |  | Activity [21]: 0.18
4 | CCSc1ccc2c(c1)C1=Nc3c4ccc(SCC)cc4c4n3[B@-]3(Oc5ccc(C[C@H](N)C(=O)OC)cc5)n5c(c6cc(SCC)ccc6c5=N4)=NC2=[N+]13 | 6.66 | > 100 | 6.92 | 68.8 | 1.93 | 583 | 579 | 66510 | 594 | 0.16 | 0.17 | 1.71 | 0.5 | 0.49 | >455 | 573 | 0.367 | 0.622 | Active | Active | Activity (SK-MEL-28): Active
5 | COC(=O)[C@H](Cc1ccc(O[B@@-]23n4c5c6ccc(I)cc6c4N=c4c6ccc(I)cc6c(n42)=NC2=[N+]3C(=N5)c3ccc(I)cc32)cc1)NC(=O)OC(C)(C)C | 4.93 | > 50 | 4.92 | > 50 | 2.22 | 568 | 569 | 106120 | 577 | 0.03 | 0.03 | 0.3 | 0.86 | 0.64 | >4 | >4 |  |  | Active | Active | 
6 | Fc1c(F)c(F)c2c(c1F)C1=Nc3c4c(F)c(F)c(F)c(F)c4c4n3[B-]3(OCc5ccc6c(c5)OCCOCCOCCOCCOCCO6)n5c(c6c(F)c(F)c(F)c(F)c6c5=N4)=NC2=[N+]13 (configuration not stated) | 4.79 | 18.9 | 5.19 | 6.78 |  | 567 | 568 | 81000 | 579 | 0.014 | 0.014 |  | 0.056 | 0.086 | 1.16 | 1.06 |  |  |  |  | 
7 | CC1(C)CCC(C)(C)c2cc3c(cc21)C1=Nc2c4cc5c(cc4c4n2[B-]2(Cl)n6c(c7cc8c(cc7c6=N4)C(C)(C)CCC8(C)C)=NC3=[N+]12)C(C)(C)CCC5(C)C (configuration not stated) |  |  |  |  |  |  |  |  | 587 |  |  |  |  |  |  |  |  |  |  |  | Activity [22]: 575 nm; Activity [23]: 0.18; Activity [24]: 0.65; Activity [25]: 2.04 nanoseconds
8 | Cl[B-]12n3c4c5ccc(I)cc5c3N=c3c5ccc(I)cc5c(n31)=NC1=[N+]2C(=N4)c2ccc(I)cc21 (configuration not stated) |  |  |  |  |  | 569 | 572 | 65160 | 581 | 0.03 | 0.03 | 0.3 | 0.77 | 0.7 |  |  |  |  |  |  | 
9 | CCSc1ccc2c(c1)C1=Nc3c4ccc(SCC)cc4c4n3[B-]3(OCc5ccc6c(c5)OCCOCCOCCOCCOCCO6)n5c(c6cc(SCC)ccc6c5=N4)=NC2=[N+]13 (configuration not stated) | 8.64 | 14.5 | 8.36 | 5.25 | 1.92 | 583 | 578 | 92080 | 594 | 0.2 | 0.21 | 1.77 | 0.72 | 0.57 | 6300 | 1193 | 2.66 | 9.69 |  |  | Ratio EC50 (HeLa [26]): 10; Ratio EC50 (HeLa [27]): 470; Ratio EC50 (HeLa [28]): 182; Drug uptake [29]: Active; Drug uptake [30]: Active; Activity (SK-MEL-28): Active
10 | COC(=O)[C@H](Cc1ccc(O[B-]23n4c5c6c(F)c(F)c(F)c(F)c6c4N=c4c6c(F)c(F)c(F)c(F)c6c(n42)=NC2=[N+]3C(=N5)c3c(F)c(F)c(F)c(F)c32)cc1)NC(=O)OC(C)(C)C (some centres not stated) | 4.18 | > 100 | 4.19 | 65.7 |  | 567 | 568 | 27790 | 578 | 0.09 | 0.09 |  | 0.19 | 0.19 | >1.51 | 1.03 |  |  |  |  | 
11 | CCSc1ccc2c(c1)C1=Nc3c4ccc(SCC)cc4c4n3[B-]3(Oc5ccc(C[C@H](NC(=O)OC(C)(C)C)C(=O)OC)cc5)n5c(c6cc(SCC)ccc6c5=N4)=NC2=[N+]13 (some centres not stated) | 5.32 | > 100 | 5.35 | > 100 | 2.63 | 582 | 581 | 97450 | 596 | 0.2 | 0.19 | 1.69 | 0.7 | 0.64 | >21 | >22 | 0.033 | 0.121 | Active | Active | Activity (SK-MEL-28): Active
